Where two headings read alike, the source gives them in different places.
Columns and labels:
PARP-1 = target: T1, PARP-1 (Homo sapiens, UniProt P09874); assay: PARP-1 inhibition assay (PARP-1 Chemiluminescent Assay Kit, BPS Bioscience); format: biochemical; conditions: for inhibition at 0.01 µM: 10 nM compound
T1 construct: purchased BPS Bioscience 80569
Protocol: (§1) The PARP-1 and PARP-2 inhibition assays were performed in outsourcing, by a CRO company, Shanghai Medicilon Inc. (Shanghai, China). […] Briefly, PARP-1 or PARP-2 biotinylated substrate was incubated with compounds or solvent control at varying concentrations and an assay buffer containing the PARP-1 or PARP-2 enzyme.

PARP-2 = target: T2, PARP-2 (Homo sapiens, UniProt Q9UGN5); assay: PARP-2 inhibition assay (PARP-2 Chemiluminescent Assay Kit, BPS Bioscience); format: biochemical; conditions: for inhibition at 0.01 µM: 10 nM compound
T2 construct: purchased BPS Bioscience 80552
T2 sequence (Q9UGN5 whole entry): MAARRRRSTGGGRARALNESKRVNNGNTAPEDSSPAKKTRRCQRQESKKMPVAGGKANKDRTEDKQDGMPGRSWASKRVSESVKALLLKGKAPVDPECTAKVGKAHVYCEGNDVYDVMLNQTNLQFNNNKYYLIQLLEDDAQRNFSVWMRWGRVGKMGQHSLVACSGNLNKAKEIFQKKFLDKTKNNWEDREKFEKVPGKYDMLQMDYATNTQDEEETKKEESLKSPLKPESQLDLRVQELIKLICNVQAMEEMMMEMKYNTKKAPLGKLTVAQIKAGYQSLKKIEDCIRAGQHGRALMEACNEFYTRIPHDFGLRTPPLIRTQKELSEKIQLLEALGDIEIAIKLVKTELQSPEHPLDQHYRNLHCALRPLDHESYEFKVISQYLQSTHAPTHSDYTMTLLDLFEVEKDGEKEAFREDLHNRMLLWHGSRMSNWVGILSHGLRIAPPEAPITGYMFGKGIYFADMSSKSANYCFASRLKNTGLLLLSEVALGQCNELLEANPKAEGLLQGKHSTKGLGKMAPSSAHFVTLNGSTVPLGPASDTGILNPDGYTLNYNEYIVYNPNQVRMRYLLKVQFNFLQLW
Protocol: as §1

[1] = system: MDA-MB-436 (a BRCA-1-mutated breast cancer cell line); assay: Cell proliferation assay, three-day, CellTiter-Glo, MDA-MB-436; format: cell-based; conditions: Homo sapiens; for inhibition at 0.00508 µM: MDA-MB-436, MDA-MB-436, Conc. 0.00508 uM; for inhibition at 0.0152 µM: MDA-MB-436, MDA-MB-436, Conc. 0.0152 uM; for inhibition at 0.0457 µM: MDA-MB-436, MDA-MB-436, Conc. 0.0457 uM; for inhibition at 0.41 µM: MDA-MB-436, MDA-MB-436, Conc. 0.41 uM; for inhibition at 1.23 µM: MDA-MB-436, MDA-MB-436, Conc. 1.23 uM; for inhibition at 3.7 µM: MDA-MB-436, MDA-MB-436, Conc. 3.70 uM; for inhibition at 11.11 µM: MDA-MB-436, MDA-MB-436, Conc. 11.11 uM; for inhibition at 33.33 µM: MDA-MB-436, MDA-MB-436, Conc. 33.33 uM; for inhibition at 100 µM: MDA-MB-436, MDA-MB-436, Conc. 100.00 uM; for IC50: MDA-MB-436, 72 h, CellTiter-Glo, read-out: MDA-MB-436 IC50
Procedure, shortened: (§2)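 Cells seeded overnight in 384-well plates, then exposed to compounds (DMSO stock diluted in medium) for 72 h at 37 °C, 5% CO2. Viability read as CellTiter-Glo luminescence after 60 min at room temperature.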

[2] = system: CAPAN-1 (a BRCA-2-mutated pancreatic cancer cell line); assay: Cell proliferation assay, three-day, CellTiter-Glo, CAPAN-1; format: cell-based; conditions: for IC50 / inhibition at 0.00508 µM / inhibition at 0.0152 µM / inhibition at 0.0457 µM / inhibition at […] / inhibition at 0.41 µM / inhibition at 1.23 µM / inhibition at 3.7 µM / inhibition at 11.11 µM / inhibition at 33.33 µM / inhibition at 100 µM: Homo sapiens; for IC50: CAPAN-1, 72 h, CellTiter-Glo, read-out: CAPAN-1 IC50; for inhibition at 0.0457 µM: CAPAN-1, 0.0457 uM; for inhibition at […]: CAPAN-1, 0.14 uM; for inhibition at 0.41 µM: CAPAN-1, 0.41 uM; for inhibition at 1.23 µM: CAPAN-1, 1.23 uM; for inhibition at 3.7 µM: CAPAN-1, 3.70 uM; for inhibition at 11.11 µM: CAPAN-1, 11.11 uM; for inhibition at 33.33 µM: CAPAN-1, 33.33 uM; for inhibition at 100 µM: CAPAN-1, 100.00 uM
Procedure, shortened: as §2

[3] = supplement sheet, read-out: 10 nM inhibition% PAPR-1
[4] = read-out: PARP-1 Inhibition % (10 nM)
[5] = supplement sheet, read-out: 10 nM inhibition% PAPR-2
[6] = read-out: PARP-2 Inhibition % (10 nM)

T1 sequence (P09874 whole entry): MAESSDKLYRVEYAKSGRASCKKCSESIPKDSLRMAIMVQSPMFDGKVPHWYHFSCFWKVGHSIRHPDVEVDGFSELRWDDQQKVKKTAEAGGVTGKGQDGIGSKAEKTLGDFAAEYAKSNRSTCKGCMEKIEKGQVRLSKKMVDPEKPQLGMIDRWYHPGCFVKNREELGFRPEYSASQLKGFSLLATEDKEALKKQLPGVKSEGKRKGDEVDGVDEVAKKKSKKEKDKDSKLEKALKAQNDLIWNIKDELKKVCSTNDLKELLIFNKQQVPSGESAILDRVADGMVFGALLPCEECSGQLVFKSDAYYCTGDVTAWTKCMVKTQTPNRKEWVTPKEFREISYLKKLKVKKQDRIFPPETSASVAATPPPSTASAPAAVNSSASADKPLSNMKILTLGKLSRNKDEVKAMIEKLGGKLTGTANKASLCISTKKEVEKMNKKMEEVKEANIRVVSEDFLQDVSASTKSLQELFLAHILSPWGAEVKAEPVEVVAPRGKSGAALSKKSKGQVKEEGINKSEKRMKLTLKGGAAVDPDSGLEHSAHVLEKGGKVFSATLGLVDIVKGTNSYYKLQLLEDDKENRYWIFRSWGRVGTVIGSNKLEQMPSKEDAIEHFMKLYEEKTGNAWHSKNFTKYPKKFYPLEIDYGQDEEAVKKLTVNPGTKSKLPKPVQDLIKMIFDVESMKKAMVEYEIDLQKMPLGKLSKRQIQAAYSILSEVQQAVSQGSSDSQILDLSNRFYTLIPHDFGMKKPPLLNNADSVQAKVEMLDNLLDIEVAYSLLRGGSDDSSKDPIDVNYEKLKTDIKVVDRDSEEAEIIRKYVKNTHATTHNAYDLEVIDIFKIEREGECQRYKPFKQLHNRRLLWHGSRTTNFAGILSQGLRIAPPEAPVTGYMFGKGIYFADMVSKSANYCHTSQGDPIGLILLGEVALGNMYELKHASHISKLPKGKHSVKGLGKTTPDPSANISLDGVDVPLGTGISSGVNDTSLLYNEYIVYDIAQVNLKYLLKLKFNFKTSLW

NC(=O)c1cccc2[nH]c(C3CCN(CCCNc4ccccc4)C3)nc12 (stereo not drawn) [Compound 5ch, 2-(1-(3-(Phenylamino)propyl)pyrrolidin-3-yl)-1H-benzo[d]imidazole-4-carboxamide]
inhibition at 0.01 µM (PARP-1; [3]): 47.5%
inhibition at 0.01 µM (PARP-1; [4]): 47.5%
IC50 (PARP-1; read-out: PARP-1 IC50): 7.1 nM
IC50 (PARP-1; supplement sheet, read-out: IC50 PAPR-1): 7.14 nM
inhibition at 0.01 µM (PARP-2; [5]): 66.2%
inhibition at 0.01 µM (PARP-2; [6]): 66.2%
IC50 (PARP-2; read-out: PARP-2 IC50): 3.3 nM
IC50 (PARP-2; supplement sheet, read-out: IC50 PAPR-2): 3.33 nM
inhibition at 0.00508 µM ([1]; replicate 1, read-out: Inh % 1): -7%
inhibition at 0.00508 µM ([1]; replicate 2, read-out: Inh % 2): -8.2%
inhibition at 0.0152 µM ([1]; replicate 1, read-out: Inh % 1): -3%
inhibition at 0.0152 µM ([1]; replicate 2, read-out: Inh % 2): -8%
inhibition at 0.0457 µM ([1]; replicate 1, read-out: Inh % 1): -14.2%
inhibition at 0.0457 µM ([1]; replicate 2, read-out: Inh % 2): -14.8%
inhibition at 0.41 µM ([1]; replicate 1, read-out: Inh % 1): -13.7%
inhibition at 0.41 µM ([1]; replicate 2, read-out: Inh % 2): -16%
inhibition at 1.23 µM ([1]; replicate 1, read-out: Inh % 1): -13.7%
inhibition at 1.23 µM ([1]; replicate 2, read-out: Inh % 2): -10.6%
inhibition at 3.7 µM ([1]; replicate 1, read-out: Inh % 1): -16.2%
inhibition at 3.7 µM ([1]; replicate 2, read-out: Inh % 2): -4.5%
inhibition at 11.11 µM ([1]; replicate 1, read-out: Inh % 1): -9.3%
inhibition at 11.11 µM ([1]; replicate 2, read-out: Inh % 2): -8.6%
inhibition at 33.33 µM ([1]; replicate 1, read-out: Inh % 1): 3.2%
inhibition at 33.33 µM ([1]; replicate 2, read-out: Inh % 2): -1.4%
inhibition at 100 µM ([1]; replicate 1, read-out: Inh % 1): 39.9%
inhibition at 100 µM ([1]; replicate 2, read-out: Inh % 2): 37.2%
IC50 [1]: > 100000 nM
LogIC50 ([2]; CAPAN-1, curve-fit output, Log (uM)): 2.153
IC50 [2]: > 100000 nM
inhibition at 0.00508 µM ([2]; CAPAN-1, 0.00508 uM, replicate 1, read-out: Inh % 1): 2.8%
inhibition at 0.00508 µM ([2]; CAPAN-1, 0.00508 uM, replicate 2, read-out: Inh % 2): -6.9%
inhibition at 0.0152 µM ([2]; CAPAN-1, 0.0152 uM, replicate 1, read-out: Inh % 1): 3.5%
inhibition at 0.0152 µM ([2]; CAPAN-1, 0.0152 uM, replicate 2, read-out: Inh % 2): 0.5%
inhibition at 0.0457 µM ([2]; replicate 1, read-out: Inh % 1): 5%
inhibition at 0.0457 µM ([2]; replicate 2, read-out: Inh % 2): 0.2%
inhibition at […] ([2]; replicate 1, read-out: Inh % 1): -1.8%
inhibition at […] ([2]; replicate 2, read-out: Inh % 2): -3%
inhibition at 0.41 µM ([2]; replicate 1, read-out: Inh % 1): 6.4%
inhibition at 0.41 µM ([2]; replicate 2, read-out: Inh % 2): 6.3%
inhibition at 1.23 µM ([2]; replicate 1, read-out: Inh % 1): -2.4%
inhibition at 1.23 µM ([2]; replicate 2, read-out: Inh % 2): -3.6%
inhibition at 3.7 µM ([2]; replicate 1, read-out: Inh % 1): 7.7%
inhibition at 3.7 µM ([2]; replicate 2, read-out: Inh % 2): 10.2%
inhibition at 11.11 µM ([2]; replicate 1, read-out: Inh % 1): 2.2%
inhibition at 11.11 µM ([2]; replicate 2, read-out: Inh % 2): 3%
inhibition at 33.33 µM ([2]; replicate 1, read-out: Inh % 1): 29.9%
inhibition at 33.33 µM ([2]; replicate 2, read-out: Inh % 2): 20.6%
inhibition at 100 µM ([2]; replicate 1, read-out: Inh % 1): 46.6%
inhibition at 100 µM ([2]; replicate 2, read-out: Inh % 2): 35.5%

NC(=O)c1cccc2[nH]c(C3CCN(CCN4C(=O)c5ccccc5C4=O)C3)nc12 (stereo not drawn) [Compound 5ck, 2-(1-(2-(1,3-Dioxoisoindolin-2-yl)ethyl)pyrrolidin-3-yl)-1H-benzo[d]imidazole-4-carboxamide]
inhibition at 0.01 µM (PARP-1; [3]): 6.02%
inhibition at 0.01 µM (PARP-1; [4]): 6%
inhibition at 0.01 µM (PARP-2; [5]): 37.1%
inhibition at 0.01 µM (PARP-2; [6]): 37.1%
inhibition at 0.00508 µM ([1]; replicate 1, read-out: Inh % 1): -0.108%
inhibition at 0.00508 µM ([1]; replicate 2, read-out: Inh % 2): -3.8%
inhibition at 0.0152 µM ([1]; replicate 1, read-out: Inh % 1): -3.1%
inhibition at 0.0152 µM ([1]; replicate 2, read-out: Inh % 2): -1.8%
inhibition at 0.0457 µM ([1]; replicate 1, read-out: Inh % 1): -9.3%
inhibition at 0.0457 µM ([1]; replicate 2, read-out: Inh % 2): -11.9%
inhibition at 0.41 µM ([1]; replicate 1, read-out: Inh % 1): -11%
inhibition at 0.41 µM ([1]; replicate 2, read-out: Inh % 2): -21.7%
inhibition at 1.23 µM ([1]; replicate 1, read-out: Inh % 1): -18.8%
inhibition at 1.23 µM ([1]; replicate 2, read-out: Inh % 2): -14.6%
inhibition at 3.7 µM ([1]; replicate 1, read-out: Inh % 1): -15.1%
inhibition at 3.7 µM ([1]; replicate 2, read-out: Inh % 2): -12.2%
inhibition at 11.11 µM ([1]; replicate 1, read-out: Inh % 1): -14.1%
inhibition at 11.11 µM ([1]; replicate 2, read-out: Inh % 2): -10%
inhibition at 33.33 µM ([1]; replicate 1, read-out: Inh % 1): -6.4%
inhibition at 33.33 µM ([1]; replicate 2, read-out: Inh % 2): -12%
inhibition at 100 µM ([1]; replicate 1, read-out: Inh % 1): -8.9%
inhibition at 100 µM ([1]; replicate 2, read-out: Inh % 2): -13.6%
IC50 [1]: > 100000 nM
IC50 [2]: > 100000 nM
inhibition at 0.0457 µM ([2]; replicate 1, read-out: Inh % 1): -1.5%
inhibition at 0.0457 µM ([2]; replicate 2, read-out: Inh % 2): -9.2%
inhibition at […] ([2]; replicate 1, read-out: Inh % 1): 8.7%
inhibition at […] ([2]; replicate 2, read-out: Inh % 2): -3.2%
inhibition at 0.41 µM ([2]; replicate 1, read-out: Inh % 1): 9%
inhibition at 0.41 µM ([2]; replicate 2, read-out: Inh % 2): -5.8%
inhibition at 1.23 µM ([2]; replicate 1, read-out: Inh % 1): 3.9%
inhibition at 1.23 µM ([2]; replicate 2, read-out: Inh % 2): -9.8%
inhibition at 3.7 µM ([2]; replicate 1, read-out: Inh % 1): 1.2%
inhibition at 3.7 µM ([2]; replicate 2, read-out: Inh % 2): 2.6%
inhibition at 11.11 µM ([2]; replicate 1, read-out: Inh % 1): -2.3%
inhibition at 11.11 µM ([2]; replicate 2, read-out: Inh % 2): -4.3%
inhibition at 33.33 µM ([2]; replicate 1, read-out: Inh % 1): 6.8%
inhibition at 33.33 µM ([2]; replicate 2, read-out: Inh % 2): 4.4%
inhibition at 100 µM ([2]; replicate 1, read-out: Inh % 1): -2.5%
inhibition at 100 µM ([2]; replicate 2, read-out: Inh % 2): -5.6%
inhibition at 0.00508 µM ([2]; CAPAN-1, Conc. 0.00508 uM, replicate 1, read-out: Inh % 1): 2.6%
inhibition at 0.00508 µM ([2]; CAPAN-1, Conc. 0.00508 uM, replicate 2, read-out: Inh % 2): 0.639%
inhibition at 0.0152 µM ([2]; CAPAN-1, Conc. 0.0152 uM, replicate 1, read-out: Inh % 1): 6.1%
inhibition at 0.0152 µM ([2]; CAPAN-1, Conc. 0.0152 uM, replicate 2, read-out: Inh % 2): -0.5%
